Experimental data reported in patent US12612410B2 (CHILDREN'S HOSPITAL MEDICAL CENTER, priority 2020, dated 2026).

How the values were obtained:
NF-κB [1] = test: NF-kB SEAP reporter assay in THP-1-Blue NF-κB cells, Pam3CSK4 stimulation; assay type: cell-based; conditions: Pam3CSK4 1 ng/mL, read-out: NF-κB Pam3SCK4 IC50
Procedure: (§1) THP-1-Blue NF-xB cells (InvivoGen) carrying a stable integrated NF-κB-inducible secreted embryonic alkaline phosphatase (SEAP) reporter construct were plated at a concentration of 1×10^5 cells per well. The cells were stimulated with Pam3CSK4 (1 ng/mL) or hIL1B (1 ng/mL). After 10-20 minutes, the cells were then treated with vehicle (DMSO) or serial dilutions of the test compounds (10 doses tested for each test compound, with a 1:10 dilution series starting at 1 μM or 3 μM) with a final volume of 200 μL for 24 hours at 37° C. After 24 hours, the cells were centrifuged and 20 μL supernatant was incubated with 180 μL QUANTI-Blue reagent at 37° C. for 30-60 minutes. The levels of NF-κB-induced was measured in a microplate reader at 620 nm.

IRAK1 = target: T1, IRAK1 (Homo sapiens, UniProt P51617); test: RBC HotSpot Kinase Assay, IRAK1; assay type: biochemical; conditions: isolated kinase, 33P-ATP
T1 construct: purchased Reaction Biology (RBC), HotSpot kinase assay
Outline: (§2)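 Functional radiometric activity assay: kinase + substrate + cofactors in Hepes pH 7.5/MgCl2/EGTA/Brij35/BSA/Na3VO4/DTT, 1% DMSO; cmpd preincubation 20 min RT; 33P-ATP start, 2 h RT; P81 filter-binding readout.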

FLT3 = target: T2, FLT3 (Homo sapiens, UniProt P36888); test: RBC HotSpot Kinase Assay, FLT3; assay type: biochemical; parameters: purchased Reaction Biology (RBC), HotSpot kinase assay; conditions: isolated kinase, 33P-ATP
T2 sequence (P36888 27-993): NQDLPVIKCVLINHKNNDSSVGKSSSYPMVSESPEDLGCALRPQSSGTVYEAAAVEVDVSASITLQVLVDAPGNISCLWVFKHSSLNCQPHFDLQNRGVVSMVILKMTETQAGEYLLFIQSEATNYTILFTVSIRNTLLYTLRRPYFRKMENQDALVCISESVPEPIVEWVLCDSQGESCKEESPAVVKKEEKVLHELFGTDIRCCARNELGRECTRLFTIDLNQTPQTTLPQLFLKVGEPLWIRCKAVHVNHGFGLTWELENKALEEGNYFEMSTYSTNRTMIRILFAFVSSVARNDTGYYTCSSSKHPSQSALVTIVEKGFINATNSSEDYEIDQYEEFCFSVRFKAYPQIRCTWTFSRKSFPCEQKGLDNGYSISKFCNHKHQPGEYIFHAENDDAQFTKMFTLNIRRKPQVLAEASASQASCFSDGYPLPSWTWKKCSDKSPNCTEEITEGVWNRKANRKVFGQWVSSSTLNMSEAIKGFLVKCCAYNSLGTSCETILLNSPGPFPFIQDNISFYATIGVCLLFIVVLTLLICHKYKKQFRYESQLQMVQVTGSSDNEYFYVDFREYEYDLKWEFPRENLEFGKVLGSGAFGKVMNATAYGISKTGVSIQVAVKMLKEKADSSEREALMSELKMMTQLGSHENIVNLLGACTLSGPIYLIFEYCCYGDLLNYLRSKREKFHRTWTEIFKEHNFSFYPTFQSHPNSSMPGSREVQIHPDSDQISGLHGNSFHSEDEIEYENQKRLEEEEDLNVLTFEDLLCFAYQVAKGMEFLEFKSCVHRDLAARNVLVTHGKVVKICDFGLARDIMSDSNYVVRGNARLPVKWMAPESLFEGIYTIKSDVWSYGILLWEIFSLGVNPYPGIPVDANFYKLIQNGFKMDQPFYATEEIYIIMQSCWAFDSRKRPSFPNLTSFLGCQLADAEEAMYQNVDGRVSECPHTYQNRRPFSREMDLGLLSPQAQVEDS
Outline: as §2

IRAK4 = target: T3, IRAK4 (Homo sapiens, UniProt Q9NWZ3); test: RBC HotSpot Kinase Assay, IRAK4; assay type: biochemical; parameters: purchased Reaction Biology (RBC), HotSpot kinase assay; conditions: isolated kinase, 33P-ATP
T3 sequence (Q9NWZ3 1-460): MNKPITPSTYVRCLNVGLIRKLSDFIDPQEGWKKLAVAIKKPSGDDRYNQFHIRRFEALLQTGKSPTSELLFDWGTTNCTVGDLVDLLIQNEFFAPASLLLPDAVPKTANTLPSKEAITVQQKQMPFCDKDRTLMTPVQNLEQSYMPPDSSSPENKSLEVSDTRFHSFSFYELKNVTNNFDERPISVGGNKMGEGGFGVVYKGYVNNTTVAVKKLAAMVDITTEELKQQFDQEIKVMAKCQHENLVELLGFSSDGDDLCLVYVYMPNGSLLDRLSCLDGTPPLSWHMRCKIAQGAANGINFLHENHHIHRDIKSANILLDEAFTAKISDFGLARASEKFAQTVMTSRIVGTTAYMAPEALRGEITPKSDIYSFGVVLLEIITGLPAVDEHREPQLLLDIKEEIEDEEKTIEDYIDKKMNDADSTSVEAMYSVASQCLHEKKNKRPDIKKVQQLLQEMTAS
Outline: as §2

NF-κB [2] = test: NF-kB SEAP reporter assay in THP-1-Blue NF-κB cells, hIL1B stimulation; assay type: cell-based; conditions: hIL1B 1 ng/mL, read-out: NF-κB IL1B IC50
Procedure: as §1

MOLM14 F691L cells = test: MOLM14 F691L cell viability assay (Cell Titer Glo); assay type: cell-based; conditions: Homo sapiens, MOLM-14, 48 h
Outline: (§3)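 MOLM14 cells carrying FLT3 D835Y or F691L were seeded at 1000 cells/well in RPMI-1640 with 20% FBS and dosed at 22 concentrations, 1:2 dilutions from 10 μM. Viability after 48 h by Cell Titer Glo luminescence; 2.3 μM bortezomib as cytotoxic control.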

MOLM14 D835Y cells = test: MOLM14 D835Y cell viability assay (Cell Titer Glo); assay type: cell-based; conditions: Homo sapiens, MOLM-14, 48 h
Outline: as §3

T1 sequence (P51617 whole entry): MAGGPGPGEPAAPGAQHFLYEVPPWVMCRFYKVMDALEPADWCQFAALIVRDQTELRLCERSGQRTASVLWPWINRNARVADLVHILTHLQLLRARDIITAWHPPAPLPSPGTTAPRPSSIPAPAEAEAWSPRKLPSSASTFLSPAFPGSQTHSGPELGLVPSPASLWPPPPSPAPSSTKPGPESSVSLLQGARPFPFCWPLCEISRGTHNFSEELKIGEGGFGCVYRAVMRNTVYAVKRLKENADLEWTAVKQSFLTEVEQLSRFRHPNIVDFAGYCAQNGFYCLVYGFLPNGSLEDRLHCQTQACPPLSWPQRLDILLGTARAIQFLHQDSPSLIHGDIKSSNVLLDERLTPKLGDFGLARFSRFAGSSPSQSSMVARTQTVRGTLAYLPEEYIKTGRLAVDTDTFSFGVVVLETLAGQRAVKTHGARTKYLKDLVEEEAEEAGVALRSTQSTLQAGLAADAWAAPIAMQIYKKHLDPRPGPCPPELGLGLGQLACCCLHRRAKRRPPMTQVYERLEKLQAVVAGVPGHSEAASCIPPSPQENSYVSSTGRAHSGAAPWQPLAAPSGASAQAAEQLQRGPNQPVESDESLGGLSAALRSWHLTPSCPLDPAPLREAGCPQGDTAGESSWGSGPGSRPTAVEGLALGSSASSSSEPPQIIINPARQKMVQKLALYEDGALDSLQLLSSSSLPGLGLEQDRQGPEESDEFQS

Row | IC50 (NF-κB [1]; 24 h) [nM] | IC50 (IRAK1) [nM] | IC50 (FLT3) [nM] | IC50 (IRAK4) [nM] | IC50 (NF-κB [2]; 24 h) [nM] | IC50 (NF-κB [1]; 24 hours) [nM] | IC50 (MOLM14 F691L cells) [nM] | IC50 (MOLM14 D835Y cells) [nM] | IC50 (NF-κB [2]; 24 hours) [nM] | Compound
1 | 17 | 190 | < 0.5 | 1 | 40 |  |  |  |  | F[C@H]1CNC[C@@H]1Nc1cccc(-c2cnc3cnc(OCC(F)(F)F)cn23)n1 [Compound 36, N-((3S,4S)-4-fluoropyrrolidin-3-yl)-6-(6-(2,2,2-trifluoroethoxy)imidazo[1,2-a]pyrazin-3-yl)pyridin-2-amine]
2 | 24 | 696 | < 0.5 | < 0.5 | 144 |  |  |  |  | CC(C)Oc1cn2c(-c3cccc(N[C@H]4CNC[C@@H]4F)n3)cnc2cn1 [Compound 59, N-((3S,4S)-4-fluoropyrrolidin-3-yl)-6-(6-isopropoxyimidazo[1,2-a]pyrazin-3-yl)pyridin-2-amine]
3 |  | 49 | 0.9 | 2 |  | 20 | 39 | 7 | 263 | O=S1(=O)CCCN1c1cn2c(-c3cccc(N[C@@H]4CCCNC4)n3)cnc2cn1 [Compound 96, (R)-2-(3-(6-(piperidin-3-ylamino)pyridin-2-yl)imidazo[1,2-a]pyrazin-6-yl)isothiazolidine 1,1-dioxide]
4 | 34 | 833 | < 0.5 | 2 | 356 |  |  |  |  | F[C@H]1CNC[C@@H]1Nc1cccc(-c2cnc3cnc(OCC4CC4)cn23)n1 [compound 60, 6-(6-(cyclopropylmethoxy)imidazo[1,2-a]pyrazin-3-yl)-N-((3S,4S)-4-fluoropyrrolidin-3-yl)pyridin-2-amine]
